The kinase profiling compilation of Christmann-Franck et al. (2016)

What was measured:
Assay in all cases: KINOMEscan competition binding
Details in all cases: compound 10.0 µM
TNK1 (human) = TNK1 (human) (UniProt Q13470)
RPS6KA1 KD1 (human) = RPS6KA1 KD1 (human) (UniProt Q15418)
MINK1 (human) = MINK1 (human) (UniProt Q8N4C8)
LATS1 (human) = LATS1 (human) (UniProt O95835)
CDK17 (human) = CDK17 (human) (UniProt Q00537)
ERBB2 (human) = ERBB2 (human) (UniProt P04626)
MAP3K2 (human) = MAP3K2 (human) (UniProt Q9Y2U5)
ACVR1B (human) = ACVR1B (human) (UniProt P36896)
EPHA1 (human) = EPHA1 (human) (UniProt P21709)
TEK (human) = TEK (human) (UniProt Q02763)
CAMK4 (human) = CAMK4 (human) (UniProt Q16566)
MAP2K6 (human) = MAP2K6 (human) (UniProt P52564)
NEK5 (human) = NEK5 (human) (UniProt Q6P3R8)
PRPF4B (human) = PRPF4B (human) (UniProt Q13523)
[1] = target: TYK2 JH1 catalytic (human) (UniProt P29597)
RIPK4 (human) = RIPK4 (human) (UniProt P57078)
TYRO3 (human) = TYRO3 (human) (UniProt Q06418)
EPHB4 (human) = EPHB4 (human) (UniProt P54760)
MAP3K12 (human) = MAP3K12 (human) (UniProt Q12852)
NEK9 (human) = NEK9 (human) (UniProt Q8TD19)
EPHB1 (human) = EPHB1 (human) (UniProt P54762)
MST4 (human) = MST4 (human) (UniProt Q9P289)
[2] = system: EGFR (human), P00533 [T790M/L858R]
ACVR2A (human) = ACVR2A (human) (UniProt P27037)
NIM1 (human) = NIM1 (human) (UniProt Q8IY84)
MARK2 (human) = MARK2 (human) (UniProt Q7KZI7)
ALK (human) = ALK (human) (UniProt Q9UM73)
PKMYT1 (human) = PKMYT1 (human) (UniProt Q99640)
PRKCD (human) = PRKCD (human) (UniProt Q05655)
YES1 (human) = YES1 (human) (UniProt P07947)
ABL2 (human) = ABL2 (human) (UniProt P42684)
CDK16 (human) = CDK16 (human) (UniProt Q00536)
SLK (human) = SLK (human) (UniProt Q9H2G2)
MAK (human) = MAK (human) (UniProt P20794)
CLK2 (human) = CLK2 (human) (UniProt P49760)
CRK2 (P.falciparum) = CRK2 (P.falciparum) (UniProt P61075)
CSNK1A1 (human) = CSNK1A1 (human) (UniProt P48729)
PIP4K2C (human) = PIP4K2C (human) (UniProt Q8TBX8)
LRRK2 (human) = LRRK2 (human) (UniProt Q5S007)
TAOK2 (human) = TAOK2 (human) (UniProt Q9UL54)

Sequence of ABL2 (human) (P42684 whole entry, looked up): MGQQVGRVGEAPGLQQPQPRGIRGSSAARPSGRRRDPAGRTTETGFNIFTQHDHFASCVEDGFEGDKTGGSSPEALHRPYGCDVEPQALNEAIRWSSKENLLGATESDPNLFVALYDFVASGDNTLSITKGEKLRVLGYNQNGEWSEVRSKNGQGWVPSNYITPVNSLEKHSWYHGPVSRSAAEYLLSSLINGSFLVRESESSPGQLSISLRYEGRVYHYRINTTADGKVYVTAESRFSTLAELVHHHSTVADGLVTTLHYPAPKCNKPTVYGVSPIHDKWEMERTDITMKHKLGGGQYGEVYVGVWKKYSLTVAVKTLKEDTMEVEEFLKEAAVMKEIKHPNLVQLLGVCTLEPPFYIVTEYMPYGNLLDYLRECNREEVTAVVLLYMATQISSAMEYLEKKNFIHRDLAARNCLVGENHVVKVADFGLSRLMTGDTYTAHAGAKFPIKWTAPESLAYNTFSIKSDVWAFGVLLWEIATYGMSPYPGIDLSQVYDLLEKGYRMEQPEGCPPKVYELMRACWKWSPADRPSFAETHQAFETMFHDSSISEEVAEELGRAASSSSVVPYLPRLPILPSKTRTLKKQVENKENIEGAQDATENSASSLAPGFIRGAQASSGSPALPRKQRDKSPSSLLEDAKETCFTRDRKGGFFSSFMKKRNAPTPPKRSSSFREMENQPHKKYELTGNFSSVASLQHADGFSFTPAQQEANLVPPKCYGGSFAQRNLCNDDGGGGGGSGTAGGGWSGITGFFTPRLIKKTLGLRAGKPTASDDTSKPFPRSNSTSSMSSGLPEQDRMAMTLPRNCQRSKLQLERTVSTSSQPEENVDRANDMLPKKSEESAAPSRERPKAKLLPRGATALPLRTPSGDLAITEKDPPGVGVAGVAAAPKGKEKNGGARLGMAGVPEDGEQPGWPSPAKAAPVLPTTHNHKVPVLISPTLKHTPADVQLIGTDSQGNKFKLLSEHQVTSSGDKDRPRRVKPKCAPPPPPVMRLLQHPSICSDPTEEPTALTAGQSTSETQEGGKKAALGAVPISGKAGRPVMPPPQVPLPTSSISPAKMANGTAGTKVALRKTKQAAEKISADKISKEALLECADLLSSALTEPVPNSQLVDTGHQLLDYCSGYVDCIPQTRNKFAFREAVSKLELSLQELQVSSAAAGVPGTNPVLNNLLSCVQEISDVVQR
Sequence of ACVR1B (human) (P36896 whole entry, looked up): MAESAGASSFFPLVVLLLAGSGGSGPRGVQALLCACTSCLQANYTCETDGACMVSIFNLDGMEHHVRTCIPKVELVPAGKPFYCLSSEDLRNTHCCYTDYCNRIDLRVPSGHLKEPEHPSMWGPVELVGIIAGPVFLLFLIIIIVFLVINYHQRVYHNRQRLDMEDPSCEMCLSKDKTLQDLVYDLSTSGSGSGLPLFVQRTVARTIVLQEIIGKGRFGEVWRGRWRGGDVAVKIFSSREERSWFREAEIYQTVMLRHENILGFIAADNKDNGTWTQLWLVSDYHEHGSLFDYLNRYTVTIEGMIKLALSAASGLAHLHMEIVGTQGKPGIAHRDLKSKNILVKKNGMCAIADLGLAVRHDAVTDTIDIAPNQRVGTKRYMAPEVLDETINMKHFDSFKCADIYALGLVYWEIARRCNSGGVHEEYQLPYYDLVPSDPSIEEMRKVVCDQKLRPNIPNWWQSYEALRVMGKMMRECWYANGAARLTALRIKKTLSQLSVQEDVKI
Sequence of EPHB1 (human) (P54762 whole entry, looked up): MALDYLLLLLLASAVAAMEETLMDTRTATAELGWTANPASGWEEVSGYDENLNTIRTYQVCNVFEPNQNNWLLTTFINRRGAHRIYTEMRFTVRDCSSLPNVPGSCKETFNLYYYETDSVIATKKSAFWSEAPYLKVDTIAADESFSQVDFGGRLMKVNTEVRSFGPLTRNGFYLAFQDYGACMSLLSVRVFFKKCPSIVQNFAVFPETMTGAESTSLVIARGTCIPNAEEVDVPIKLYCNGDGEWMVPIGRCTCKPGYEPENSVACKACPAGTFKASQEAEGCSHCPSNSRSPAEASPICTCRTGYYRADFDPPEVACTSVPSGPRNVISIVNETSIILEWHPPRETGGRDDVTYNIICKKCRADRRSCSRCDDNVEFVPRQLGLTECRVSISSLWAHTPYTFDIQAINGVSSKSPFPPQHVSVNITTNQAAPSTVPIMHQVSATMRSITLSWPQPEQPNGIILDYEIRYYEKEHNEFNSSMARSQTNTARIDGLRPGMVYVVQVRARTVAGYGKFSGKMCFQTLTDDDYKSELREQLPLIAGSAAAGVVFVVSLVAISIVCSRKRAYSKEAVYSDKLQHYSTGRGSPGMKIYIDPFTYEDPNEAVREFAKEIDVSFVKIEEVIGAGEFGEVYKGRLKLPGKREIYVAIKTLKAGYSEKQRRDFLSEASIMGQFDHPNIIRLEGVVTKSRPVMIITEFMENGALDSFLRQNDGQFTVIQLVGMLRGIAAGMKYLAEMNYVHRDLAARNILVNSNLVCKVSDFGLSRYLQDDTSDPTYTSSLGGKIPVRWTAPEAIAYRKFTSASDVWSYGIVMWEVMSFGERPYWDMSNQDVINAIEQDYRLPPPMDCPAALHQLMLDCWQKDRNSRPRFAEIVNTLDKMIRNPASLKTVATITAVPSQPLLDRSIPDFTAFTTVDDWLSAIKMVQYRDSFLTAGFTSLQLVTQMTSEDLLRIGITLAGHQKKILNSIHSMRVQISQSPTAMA
Sequence of CDK16 (human) (Q00536 whole entry, looked up): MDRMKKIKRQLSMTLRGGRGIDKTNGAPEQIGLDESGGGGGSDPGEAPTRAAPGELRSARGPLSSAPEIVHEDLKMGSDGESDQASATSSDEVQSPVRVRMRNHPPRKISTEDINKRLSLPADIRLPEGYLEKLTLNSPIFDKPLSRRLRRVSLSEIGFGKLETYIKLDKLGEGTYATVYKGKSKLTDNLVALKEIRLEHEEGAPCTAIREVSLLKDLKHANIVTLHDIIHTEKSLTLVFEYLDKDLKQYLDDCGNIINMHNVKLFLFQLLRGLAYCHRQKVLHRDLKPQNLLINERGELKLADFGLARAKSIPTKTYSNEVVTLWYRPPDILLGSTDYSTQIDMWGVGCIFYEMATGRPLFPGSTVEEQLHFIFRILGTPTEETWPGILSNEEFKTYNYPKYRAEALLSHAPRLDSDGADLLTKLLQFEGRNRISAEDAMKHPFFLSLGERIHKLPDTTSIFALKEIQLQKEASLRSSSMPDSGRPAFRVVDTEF
Sequence of NEK9 (human) (Q8TD19 whole entry, looked up): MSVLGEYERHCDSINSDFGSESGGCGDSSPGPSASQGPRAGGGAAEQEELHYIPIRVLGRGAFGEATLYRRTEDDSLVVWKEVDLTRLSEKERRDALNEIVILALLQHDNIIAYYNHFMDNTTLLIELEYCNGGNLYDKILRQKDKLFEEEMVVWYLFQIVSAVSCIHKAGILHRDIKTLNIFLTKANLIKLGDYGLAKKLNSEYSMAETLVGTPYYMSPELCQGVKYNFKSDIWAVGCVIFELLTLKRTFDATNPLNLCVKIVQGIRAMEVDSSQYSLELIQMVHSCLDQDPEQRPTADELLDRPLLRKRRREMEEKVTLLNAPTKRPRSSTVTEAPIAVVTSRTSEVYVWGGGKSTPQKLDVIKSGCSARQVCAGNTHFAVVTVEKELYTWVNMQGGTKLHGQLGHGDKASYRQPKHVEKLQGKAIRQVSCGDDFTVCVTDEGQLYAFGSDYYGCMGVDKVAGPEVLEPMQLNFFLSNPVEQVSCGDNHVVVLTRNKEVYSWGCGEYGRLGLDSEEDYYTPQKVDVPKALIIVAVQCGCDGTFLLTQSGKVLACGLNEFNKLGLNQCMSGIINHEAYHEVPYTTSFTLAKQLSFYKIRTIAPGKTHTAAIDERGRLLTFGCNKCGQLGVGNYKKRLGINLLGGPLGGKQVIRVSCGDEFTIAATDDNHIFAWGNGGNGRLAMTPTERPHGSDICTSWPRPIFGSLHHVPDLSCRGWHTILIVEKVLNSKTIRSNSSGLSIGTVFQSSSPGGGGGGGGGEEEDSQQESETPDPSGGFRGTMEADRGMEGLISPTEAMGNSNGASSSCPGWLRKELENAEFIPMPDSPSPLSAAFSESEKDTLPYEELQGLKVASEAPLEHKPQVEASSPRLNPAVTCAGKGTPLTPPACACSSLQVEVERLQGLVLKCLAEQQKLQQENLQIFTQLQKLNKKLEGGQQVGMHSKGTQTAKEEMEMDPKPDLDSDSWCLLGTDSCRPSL
Sequence of MST4 (human) (Q9P289 whole entry, looked up): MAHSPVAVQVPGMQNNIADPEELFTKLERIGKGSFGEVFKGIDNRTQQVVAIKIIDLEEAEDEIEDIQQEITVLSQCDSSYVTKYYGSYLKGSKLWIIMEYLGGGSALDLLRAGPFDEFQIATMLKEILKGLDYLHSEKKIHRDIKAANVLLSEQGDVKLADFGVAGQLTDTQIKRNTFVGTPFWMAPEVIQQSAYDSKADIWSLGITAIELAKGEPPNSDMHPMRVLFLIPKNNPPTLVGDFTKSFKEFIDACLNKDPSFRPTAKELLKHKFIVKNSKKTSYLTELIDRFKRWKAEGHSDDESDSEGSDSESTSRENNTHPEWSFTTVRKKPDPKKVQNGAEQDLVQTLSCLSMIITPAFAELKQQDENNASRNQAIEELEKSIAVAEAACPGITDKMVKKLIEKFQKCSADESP
Sequence of NIM1 (human) (Q8IY84 whole entry, looked up): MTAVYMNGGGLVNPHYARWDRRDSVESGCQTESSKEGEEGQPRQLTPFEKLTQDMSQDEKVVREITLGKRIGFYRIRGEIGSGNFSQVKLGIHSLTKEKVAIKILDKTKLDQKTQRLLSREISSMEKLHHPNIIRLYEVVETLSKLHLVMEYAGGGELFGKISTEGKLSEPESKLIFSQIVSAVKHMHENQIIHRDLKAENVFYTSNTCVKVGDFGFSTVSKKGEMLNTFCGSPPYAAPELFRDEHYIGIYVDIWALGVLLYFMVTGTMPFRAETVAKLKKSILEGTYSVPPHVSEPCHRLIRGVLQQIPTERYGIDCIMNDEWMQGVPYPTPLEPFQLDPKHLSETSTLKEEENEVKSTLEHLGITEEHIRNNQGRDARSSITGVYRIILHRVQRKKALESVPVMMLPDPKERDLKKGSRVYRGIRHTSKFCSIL

| SMILES | kinase still bound, per cent of control (TNK1 (human)) | kinase still bound, per cent of control (MINK1 (human)) | kinase still bound, per cent of control (LATS1 (human)) | kinase still bound, per cent of control (CDK17 (human)) | kinase still bound, per cent of control (MAP3K2 (human)) | kinase still bound, per cent of control (ACVR1B (human)) | kinase still bound, per cent of control (EPHA1 (human)) | kinase still bound, per cent of control (CAMK4 (human)) | kinase still bound, per cent of control (MAP2K6 (human)) | kinase still bound, per cent of control (NEK5 (human)) | kinase still bound, per cent of control (PRPF4B (human)) | kinase still bound, per cent of control [1] | kinase still bound, per cent of control (RIPK4 (human)) | kinase still bound, per cent of control (MAP3K12 (human)) | kinase still bound, per cent of control (NEK9 (human)) | kinase still bound, per cent of control (EPHB1 (human)) | kinase still bound, per cent of control (MST4 (human)) | kinase still bound, per cent of control (ACVR2A (human)) | kinase still bound, per cent of control (NIM1 (human)) | kinase still bound, per cent of control (MARK2 (human)) | other results |
| --- | --- | --- | --- | --- | --- | --- | --- | --- | --- | --- | --- | --- | --- | --- | --- | --- | --- | --- | --- | --- | --- |
| CCN(CC)CCCCNc1ncc2c(n1)N(C)C(=O)N(c1c(Cl)c(OC)cc(OC)c1Cl)C2 | 100% | 100% | 100% | 100% | 6.8% | 100% | 100% | 100% | 100% | 100% | 100% | 100% | 100% | 100% | 100% | 100% | 11% | 100% | 100% | 100% | kinase still bound, per cent of control (RPS6KA1 KD1 (human)): 100%; kinase still bound, per cent of control (ERBB2 (human)): 100%; kinase still bound, per cent of control (TEK (human)): 100%; kinase still bound, per cent of control (TYRO3 (human)): 100%; kinase still bound, per cent of control (EPHB4 (human)): 100%; kinase still bound, per cent of control [2]: 100%; kinase still bound, per cent of control (ALK (human)): 100%; kinase still bound, per cent of control (PKMYT1 (human)): 100%; kinase still bound, per cent of control (PRKCD (human)): 100%; kinase still bound, per cent of control (YES1 (human)): 100%; kinase still bound, per cent of control (ABL2 (human)): 100%; kinase still bound, per cent of control (CDK16 (human)): 100%; kinase still bound, per cent of control (SLK (human)): 100%; kinase still bound, per cent of control (MAK (human)): 100%; kinase still bound, per cent of control (CLK2 (human)): 100% |
| COc1cc(N2CCN(C)CC2)ccc1Nc1ncc2c(n1)N(C)c1ccccc1C(=O)N2C | 0.4% | 100% | 100% | 100% | 32% | 100% | 100% | 100% | 100% | 100% | 100% | 100% | 100% | 100% | 100% | 100% | 100% | 100% | 100% | 100% | kinase still bound, per cent of control (RPS6KA1 KD1 (human)): 100%; kinase still bound, per cent of control (ERBB2 (human)): 100%; kinase still bound, per cent of control (TEK (human)): 100%; kinase still bound, per cent of control (TYRO3 (human)): 100%; kinase still bound, per cent of control (EPHB4 (human)): 100%; kinase still bound, per cent of control [2]: 100%; kinase still bound, per cent of control (ALK (human)): 16%; kinase still bound, per cent of control (PKMYT1 (human)): 100%; kinase still bound, per cent of control (PRKCD (human)): 100%; kinase still bound, per cent of control (YES1 (human)): 100%; kinase still bound, per cent of control (ABL2 (human)): 100%; kinase still bound, per cent of control (CDK16 (human)): 100%; kinase still bound, per cent of control (SLK (human)): 100%; kinase still bound, per cent of control (MAK (human)): 100%; kinase still bound, per cent of control (CLK2 (human)): 100% |
| C[C@@H](Oc1cc(-c2cnn(C3CCNCC3)c2)cnc1N)c1c(Cl)ccc(F)c1Cl | 7.1% | 18% | 100% | 62% | 0.05% | 9% | 0.85% | 100% | 54% | 63% | 48% | 14% | 8.2% | 9% | 6.2% | 0.15% | 13% | 30% | 12% | 20% | kinase still bound, per cent of control (CRK2 (P.falciparum)): 95%; kinase still bound, per cent of control (TEK (human)): 1%; kinase still bound, per cent of control (CSNK1A1 (human)): 61%; kinase still bound, per cent of control (EPHB4 (human)): 4.8%; kinase still bound, per cent of control (PIP4K2C (human)): 100%; kinase still bound, per cent of control (LRRK2 (human)): 97%; kinase still bound, per cent of control (PKMYT1 (human)): 100%; kinase still bound, per cent of control (PRKCD (human)): 100%; kinase still bound, per cent of control (YES1 (human)): 17%; kinase still bound, per cent of control (ABL2 (human)): 0.85%; kinase still bound, per cent of control (CDK16 (human)): 96%; kinase still bound, per cent of control (TAOK2 (human)): 0.9%; kinase still bound, per cent of control (SLK (human)): 0.1%; kinase still bound, per cent of control (MAK (human)): 63%; kinase still bound, per cent of control (CLK2 (human)): 68% |
| CNC(=O)c1cc(Oc2ccc(NC(=O)Nc3ccc(Cl)c(C(F)(F)F)c3)cc2)ccn1 | 37% | 46% | 79% | 17% | 100% | 92% | 20% | 100% | 76% | 90% | 100% | 70% | 92% | 57% | 79% | 30% | 100% | 100% | 97% | 98% | kinase still bound, per cent of control (CRK2 (P.falciparum)): 94%; kinase still bound, per cent of control (RPS6KA1 KD1 (human)): 82%; kinase still bound, per cent of control (ERBB2 (human)): 100%; kinase still bound, per cent of control (CSNK1A1 (human)): 100%; kinase still bound, per cent of control (TYRO3 (human)): 80%; kinase still bound, per cent of control (PIP4K2C (human)): 100%; kinase still bound, per cent of control (LRRK2 (human)): 77%; kinase still bound, per cent of control (ALK (human)): 69%; kinase still bound, per cent of control (PKMYT1 (human)): 94%; kinase still bound, per cent of control (PRKCD (human)): 100%; kinase still bound, per cent of control (YES1 (human)): 69%; kinase still bound, per cent of control (ABL2 (human)): 35%; kinase still bound, per cent of control (CDK16 (human)): 72%; kinase still bound, per cent of control (TAOK2 (human)): 1.6%; kinase still bound, per cent of control (SLK (human)): 15%; kinase still bound, per cent of control (MAK (human)): 41%; kinase still bound, per cent of control (CLK2 (human)): 55% |
